Measured values published in patent US20230416330A1, “Optimized GIP Peptide Analogues” (Antag Therapeutics ApS, priority 2019, published 2023).
Starred links: 1 amine or outer side, 2 acyl side, 3 side chain; linkers in the order of their positions; H or OH if unused. Positions of bridges follow the written chain, without caps; N, C: chain ends. Non-standard residues stand in square brackets, D forms with d. Residues, ends and D or L forms follow the SMILES beside them. Groups on a side chain read outwards from the residue. Chains are numbered I, II in the order given. No end group written: not given here. *: point of attachment. C16 diacid = O=C(O)CCCCCCCCCCCCCCC(=O)*; γGlu = O=C(O)[C@H](CCC(=O)[*:2])N[*:1]; Glutaryl = O=C(CCCC(=O)[*:2])[*:1]; Aib = CC(C)(N)C(=O)O

Key:
[1] = Physical stability: fibril formation in Thioflavin T (ThT) assay with agitation; format: physicochemical; conditions: for Avr lag time (h): 25° C., agitation
Summary of the method: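 Peptides at 1, 5, 7.5 or 15 mg/ml in 50 mM sodium phosphate pH 7.4 or in water adjusted to pH 7.4 with NaOH, filtered 0.22 μm, with ThT added. Wells held a 3 mm silica bead under 300 rpm orbital agitation at 25° C. Emission at 486 nm tracked continuously; lag time = 10% of transition above baseline.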

[2] = Solubility by visual inspection of peptide solutions; format: physicochemical
Summary of the method: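 Peptides dissolved at 1, 5, 7.5 or 15 mg/ml in 50 mM sodium phosphate pH 7.4 or water adjusted to pH 7.4 with NaOH, with gentle mixing. Immediate solubility judged visually as a clear, colorless solution.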

human GIP receptor = target: T1, human GIP receptor (human, UniProt P48546 22-466); experiment: cell-based or functional assay
T1 sequence (looked up): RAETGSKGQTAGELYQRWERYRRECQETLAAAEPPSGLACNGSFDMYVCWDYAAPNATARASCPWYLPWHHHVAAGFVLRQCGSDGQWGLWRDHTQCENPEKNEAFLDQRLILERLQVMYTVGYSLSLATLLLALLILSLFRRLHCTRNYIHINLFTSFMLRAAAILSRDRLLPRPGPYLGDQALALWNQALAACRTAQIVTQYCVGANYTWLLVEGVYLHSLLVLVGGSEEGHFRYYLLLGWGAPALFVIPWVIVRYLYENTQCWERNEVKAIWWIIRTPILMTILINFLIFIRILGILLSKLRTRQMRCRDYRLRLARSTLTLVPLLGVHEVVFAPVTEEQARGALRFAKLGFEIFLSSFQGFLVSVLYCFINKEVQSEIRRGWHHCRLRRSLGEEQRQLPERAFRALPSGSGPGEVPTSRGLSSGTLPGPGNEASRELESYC

CC[C@H](C)[C@H](NC(=O)[C@H](CCCCN)NC(=O)[C@H](CC(=O)O)NC(=O)[C@H](CCSC)NC(=O)C(C)(C)NC(=O)[C@@H](NC(=O)[C@H](CO)NC(=O)[C@H](Cc1ccc(O)cc1)NC(=O)[C@H](CC(=O)O)NC(=O)[C@H](CO)NC(=O)[C@@H](NC(=O)[C@H](Cc1ccccc1)NC(=O)[C@@H](NC(=O)CNC(=O)CCCC(=O)O)[C@@H](C)O)[C@@H](C)CC)[C@@H](C)CC)C(=O)N[C@@H](CCCCNC(=O)CCCCCCCCCCCCCCC(=O)O)C(=O)N[C@@H](CCC(N)=O)C(=O)N[C@@H](CCC(N)=O)C(=O)N[C@@H](CC(=O)O)C(=O)N[C@@H](Cc1ccccc1)C(=O)N[C@H](C(=O)N[C@@H](CC(N)=O)C(=O)N[C@@H](Cc1c[nH]c2ccccc12)C(=O)N[C@@H](CC(C)C)C(=O)N[C@@H](CC(C)C)C(=O)N[C@@H](C)C(=O)N[C@@H](CCC(N)=O)C(=O)N[C@@H](CCCCN)C(=O)N1CCC[C@H]1C(=O)N[C@@H](CO)C(=O)N[C@@H](CO)C(=O)NCC(=O)N[C@@H](C)C(=O)N1CCC[C@H]1C(=O)N1CCC[C@H]1C(=O)N1CCC[C@H]1C(=O)N[C@@H](CO)C(=O)O)C(C)C [AT763] (Glutaryl-GTFISDYSI[Aib]MDKIK(C16 diacid)QQDFVNWLLAQKPSSGAPPPS-OH)
Avr lag time (h) ([1]; 1 mg/ml, TFA, Phosphate (7.4)): fnd (Fnd = fibrils not detected within experiment time (96 hours) with agitation.) | Avr lag time (h) ([1]; 5 mg/ml, TFA, MilliQ): fnd (Fnd = fibrils not detected within experiment time (96 hours) with agitation.) | Avr lag time (h) ([1]; 5 mg/ml, TFA, Phosphate): fnd (Fnd = fibrils not detected within experiment time (96 hours) with agitation.) | Fibril formation (FIG. 1) ([1]; in phosphate buffer, about 94 h, orbital rotation): does not form fibrils | Visual appearance ([2]; 1 mg/ml, TFA, Phosphate (7.4)): Clear | Visual appearance ([2]; 5 mg/ml, TFA, MilliQ): Clear | Visual appearance ([2]; 5 mg/ml, TFA, Phosphate): Clear

I: EGTFISEYSI[Aib]LEKIKQQEFVEWLLAQKPSSGAPPPS-OH / II: {C16 diacid}-GGGGS (amide I:16-II:C) [AT722]
Avr lag time (h) ([1]; 1 mg/ml, TFA, Phosphate (7.4)): fnd (Fnd = fibrils not detected within experiment time (96 hours) with agitation.) | Avr lag time (h) ([1]; 7.5 mg/ml, Na, MilliQ (8)): fnd (Fnd = fibrils not detected within experiment time (96 hours) with agitation.) | Avr lag time (h) ([1]; 15 mg/ml, Na, MilliQ (8)): fnd (Fnd = fibrils not detected within experiment time (96 hours) with agitation.) | Visual appearance ([2]; 1 mg/ml, TFA, Phosphate (7.4)): Clear | Visual appearance ([2]; 7.5 mg/ml, Na, MilliQ (8)): Clear | Visual appearance ([2]; 15 mg/ml, Na, MilliQ (8)): Clear

B1: AT719 (peptide)
peptide: EGTFISDYSIAMDKIK(C16 diacid)QQDFVNWLLAQK-OH
modifications: N-terminus assumed
SMILES: CC[C@H](C)[C@H](NC(=O)[C@H](CO)NC(=O)[C@H](Cc1ccc(O)cc1)NC(=O)[C@H](CC(=O)O)NC(=O)[C@H](CO)NC(=O)[C@@H](NC(=O)[C@H](Cc1ccccc1)NC(=O)[C@@H](NC(=O)CNC(=O)[C@@H](N)CCC(=O)O)[C@@H](C)O)[C@@H](C)CC)C(=O)N[C@@H](C)C(=O)N[C@@H](CCSC)C(=O)N[C@@H](CC(=O)O)C(=O)N[C@@H](CCCCN)C(=O)N[C@H](C(=O)N[C@@H](CCCCNC(=O)CCCCCCCCCCCCCCC(=O)O)C(=O)N[C@@H](CCC(N)=O)C(=O)N[C@@H](CCC(N)=O)C(=O)N[C@@H](CC(=O)O)C(=O)N[C@@H](Cc1ccccc1)C(=O)N[C@H](C(=O)N[C@@H](CC(N)=O)C(=O)N[C@@H](Cc1c[nH]c2ccccc12)C(=O)N[C@@H](CC(C)C)C(=O)N[C@@H](CC(C)C)C(=O)N[C@@H](C)C(=O)N[C@@H](CCC(N)=O)C(=O)N[C@@H](CCCCN)C(=O)O)C(C)C)[C@@H](C)CC
nM (Kb, Gaddum assay, cAMP) (human GIP receptor): 7.6 nM | pKb (Gaddum assay, cAMP) (human GIP receptor): 8.1

B2: AT720 (peptide)
peptide: EGTFISEYSI[Aib]LEKIK([Aib-C16 diacid])QQEFVEWLLAQKPSSGAPPPS-OH
modifications: N-terminus assumed
SMILES: CC[C@H](C)[C@H](NC(=O)[C@H](CCCCN)NC(=O)[C@H](CCC(=O)O)NC(=O)[C@H](CC(C)C)NC(=O)C(C)(C)NC(=O)[C@@H](NC(=O)[C@H](CO)NC(=O)[C@H](Cc1ccc(O)cc1)NC(=O)[C@H](CCC(=O)O)NC(=O)[C@H](CO)NC(=O)[C@@H](NC(=O)[C@H](Cc1ccccc1)NC(=O)[C@@H](NC(=O)CNC(=O)[C@@H](N)CCC(=O)O)[C@@H](C)O)[C@@H](C)CC)[C@@H](C)CC)C(=O)N[C@@H](CCCCNC(=O)C(C)(C)NC(=O)CCCCCCCCCCCCCCC(=O)O)C(=O)N[C@@H](CCC(N)=O)C(=O)N[C@@H](CCC(N)=O)C(=O)N[C@@H](CCC(=O)O)C(=O)N[C@@H](Cc1ccccc1)C(=O)N[C@H](C(=O)N[C@@H](CCC(=O)O)C(=O)N[C@@H](Cc1c[nH]c2ccccc12)C(=O)N[C@@H](CC(C)C)C(=O)N[C@@H](CC(C)C)C(=O)N[C@@H](C)C(=O)N[C@@H](CCC(N)=O)C(=O)N[C@@H](CCCCN)C(=O)N1CCC[C@H]1C(=O)N[C@@H](CO)C(=O)N[C@@H](CO)C(=O)NCC(=O)N[C@@H](C)C(=O)N1CCC[C@H]1C(=O)N1CCC[C@H]1C(=O)N1CCC[C@H]1C(=O)N[C@@H](CO)C(=O)O)C(C)C
nM (Kb, Gaddum assay, cAMP) (human GIP receptor): 0.29 nM | pKb (Gaddum assay, cAMP) (human GIP receptor): 9.5

B3: AT721 (peptide)
peptide: EGTFISEYSI[Aib]LEKIK([γGlu-C16 diacid])QQEFVEWLLAQKPSSGAPPPS-OH
modifications: N-terminus assumed
SMILES: CC[C@H](C)[C@H](NC(=O)[C@H](CCCCN)NC(=O)[C@H](CCC(=O)O)NC(=O)[C@H](CC(C)C)NC(=O)C(C)(C)NC(=O)[C@@H](NC(=O)[C@H](CO)NC(=O)[C@H](Cc1ccc(O)cc1)NC(=O)[C@H](CCC(=O)O)NC(=O)[C@H](CO)NC(=O)[C@@H](NC(=O)[C@H](Cc1ccccc1)NC(=O)[C@@H](NC(=O)CNC(=O)[C@@H](N)CCC(=O)O)[C@@H](C)O)[C@@H](C)CC)[C@@H](C)CC)C(=O)N[C@@H](CCCCNC(=O)CC[C@H](NC(=O)CCCCCCCCCCCCCCC(=O)O)C(=O)O)C(=O)N[C@@H](CCC(N)=O)C(=O)N[C@@H](CCC(N)=O)C(=O)N[C@@H](CCC(=O)O)C(=O)N[C@@H](Cc1ccccc1)C(=O)N[C@H](C(=O)N[C@@H](CCC(=O)O)C(=O)N[C@@H](Cc1c[nH]c2ccccc12)C(=O)N[C@@H](CC(C)C)C(=O)N[C@@H](CC(C)C)C(=O)N[C@@H](C)C(=O)N[C@@H](CCC(N)=O)C(=O)N[C@@H](CCCCN)C(=O)N1CCC[C@H]1C(=O)N[C@@H](CO)C(=O)N[C@@H](CO)C(=O)NCC(=O)N[C@@H](C)C(=O)N1CCC[C@H]1C(=O)N1CCC[C@H]1C(=O)N1CCC[C@H]1C(=O)N[C@@H](CO)C(=O)O)C(C)C
nM (Kb, Gaddum assay, cAMP) (human GIP receptor): 0.31 nM | pKb (Gaddum assay, cAMP) (human GIP receptor): 9.5

B4: AT722 (peptide)
peptide: EGTFISEYSI[Aib]LEKIK([Ser-Gly-Gly-Gly-Gly-C16 diacid])QQEFVEWLLAQKPSSGAPPPS-OH
modifications: N-terminus assumed
SMILES: CC[C@H](C)[C@H](NC(=O)[C@H](CCCCN)NC(=O)[C@H](CCC(=O)O)NC(=O)[C@H](CC(C)C)NC(=O)C(C)(C)NC(=O)[C@@H](NC(=O)[C@H](CO)NC(=O)[C@H](Cc1ccc(O)cc1)NC(=O)[C@H](CCC(=O)O)NC(=O)[C@H](CO)NC(=O)[C@@H](NC(=O)[C@H](Cc1ccccc1)NC(=O)[C@@H](NC(=O)CNC(=O)[C@@H](N)CCC(=O)O)[C@@H](C)O)[C@@H](C)CC)[C@@H](C)CC)C(=O)N[C@@H](CCCCNC(=O)[C@H](CO)NC(=O)CNC(=O)CNC(=O)CNC(=O)CNC(=O)CCCCCCCCCCCCCCC(=O)O)C(=O)N[C@@H](CCC(N)=O)C(=O)N[C@@H](CCC(N)=O)C(=O)N[C@@H](CCC(=O)O)C(=O)N[C@@H](Cc1ccccc1)C(=O)N[C@H](C(=O)N[C@@H](CCC(=O)O)C(=O)N[C@@H](Cc1c[nH]c2ccccc12)C(=O)N[C@@H](CC(C)C)C(=O)N[C@@H](CC(C)C)C(=O)N[C@@H](C)C(=O)N[C@@H](CCC(N)=O)C(=O)N[C@@H](CCCCN)C(=O)N1CCC[C@H]1C(=O)N[C@@H](CO)C(=O)N[C@@H](CO)C(=O)NCC(=O)N[C@@H](C)C(=O)N1CCC[C@H]1C(=O)N1CCC[C@H]1C(=O)N1CCC[C@H]1C(=O)N[C@@H](CO)C(=O)O)C(C)C
nM (Kb, Gaddum assay, cAMP) (human GIP receptor): 0.28 nM | pKb (Gaddum assay, cAMP) (human GIP receptor): 9.6

EGTFISEYSI[Aib]LEKIK([Lys-Ala-Ala-Ala-Glu-Lys-Ala-Ala-Ala-Glu-Lys-Ala-Ala-Ala-Glu-C16 diacid])QQEFVEWLLAQKPSSGAPPPS-OH (not fully specified) [AT724]
nM (Kb, Gaddum assay, cAMP) (human GIP receptor): 0.31 nM | pKb (Gaddum assay, cAMP) (human GIP receptor): 9.5

EGTFISEYSI[Aib]LEKIK([Ala-Glu-Leu-Ala-C16 diacid])QQEFVEWLLAQKPSSGAPPPS-OH [AT725]
nM (Kb, Gaddum assay, cAMP) (human GIP receptor): 0.6 nM | pKb (Gaddum assay, cAMP) (human GIP receptor): 9.2
